# From ChEMBL document CHEMBL2046436, “Synthesis and structure-activity relationships of benzophenone-bearing diketopiperazine-type anti-microtubule agents” (Bioorg Med Chem, 2012)
# Activity calls are given as the source filed them. No cut-off for these calls is given here.
# Key:
# [1] = test system: HT-29; experiment: Cytotoxicity against human HT-29 cells after 48 hrs by Resazurin assay; conditions: HT-29, 48 h
# [2] = test system: HeLa; experiment: Cytotoxicity against human HeLa cells after 48 hrs by WST-8 assay; format: functional, cell-based
# [3] = Inhibition of bovine brain microtubule polymerization by spectrophotometric analysis; parameters: species or system Bos taurus
# [4] = test system: HeLa; experiment: Antimitotic activity in human HeLa cells assessed as multipolar spindle formation at 3 nM after 6 hrs by DAPI staining-based immunofluorescence analysis; format: functional, cell-based
# [5] = test system: HeLa; experiment: Antimitotic activity in human HeLa cells assessed as disruption of interphase microtubule network at 10 nM after 6 hrs by DAPI staining-based immunofluorescence analysis; format: functional, cell-based
# [6] = test system: HeLa; experiment: Antimitotic activity in human HeLa cells assessed as microtubule network damage at interphase at 1 nM after 6 hrs by DAPI staining-based immunofluorescence analysis; format: functional, cell-based
# [7] = molecular target: tubulin (Sus scrofa); experiment: Binding affinity to porcine tubulin by spectrophotometric analysis
# [8] = test system: A549; experiment: Cytotoxicity against human A549 cells after 48 hrs by WST-8 assay; format: functional, cell-based; conditions: A549, 48 h
# [9] = test system: HeLa; experiment: Antimitotic activity in human HeLa cells assessed as change in dipolar spindle formation in metaphase at 1 nM after 6 hrs by DAPI staining-based immunofluorescence analysis; format: functional, cell-based
# [10] = test system: HeLa; experiment: Antimitotic activity in human HeLa cells assessed as disruption of interphase microtubule network at 3 nM after 6 hrs by DAPI staining-based immunofluorescence analysis; format: functional, cell-based
# [11] = test system: HT-29; experiment: Cytotoxicity against human HT-29 cells after 48 hrs by resazurin assay; format: functional, cell-based; conditions: HT-29, 48 h
smiles,measurement,setting,value
CC(C)(C)c1[nH]cnc1/C=c1\[nH]c(=O)/c(=C/c2cccc(C(O)c3ccccc3)c2)[nH]c1=O (centres undefined),IC50,[1],41 nM
CC(C)(C)c1[nH]cnc1/C=c1\[nH]c(=O)/c(=C/c2cccc(C(=O)c3cccc(Cl)c3)c2)[nH]c1=O,IC50,[1],2 nM
CC(C)(C)c1[nH]cnc1/C=c1\[nH]c(=O)/c(=C/c2cccc(C(=O)c3ccccc3F)c2)[nH]c1=O,IC50,[1],3 nM
CC(C)(C)c1[nH]cnc1/C=c1\[nH]c(=O)/c(=C/c2cccc(C(=O)c3ccc(C(F)(F)F)cc3)c2)[nH]c1=O,IC50,[1],147 nM
CC(C)(C)c1[nH]cnc1/C=c1\[nH]c(=O)/c(=C/c2cccc(C(=O)c3ccc(F)cc3)c2)[nH]c1=O,IC50,[2],1.7 nM
same,IC50,[3],900 nM
same,IC50,[1],0.5 nM
same,Activity,[4],Active
same,Activity,[5],Active
same,Activity,[6],inactive
same,Kd,[7],72 nM
same,IC50,[8],0.8 nM
same,Activity,[9],inactive
same,Activity,[10],Active
CC(C)(C)c1[nH]cnc1/C=c1\[nH]c(=O)/c(=C/c2cccc(C(=O)c3ccc(Br)cc3)c2)[nH]c1=O,IC50,[1],4 nM
COc1ccccc1C(=O)c1cccc(/C=c2\[nH]c(=O)/c(=C/c3nc[nH]c3C(C)(C)C)[nH]c2=O)c1,IC50,[1],360 nM
CC(C)(C)c1[nH]cnc1/C=c1\[nH]c(=O)/c(=C/c2ccc(C(=O)c3ccccc3)cc2)[nH]c1=O,IC50,[1],1200 nM
COc1cc(C(=O)c2cccc(/C=c3\[nH]c(=O)/c(=C/c4nc[nH]c4C(C)(C)C)[nH]c3=O)c2)cc(OC)c1OC,IC50,[1],2500 nM
COc1cccc(C(=O)c2cccc(/C=c3\[nH]c(=O)/c(=C/c4nc[nH]c4C(C)(C)C)[nH]c3=O)c2)c1,IC50,[1],39 nM
COc1cc2c(c(OC)c1OC)-c1ccc(OC)c(=O)cc1[C@@H](NC(C)=O)CC2 [COLCHICINE],IC50,[2],20.2 nM
same,IC50,[1],9.3 nM
same,IC50,[8],50.6 nM
COc1cccc(C(=O)c2cccc(/C=c3\[nH]c(=O)/c(=C/c4nc[nH]c4C(C)(C)C)[nH]c3=O)c2)c1OC,IC50,[1],955 nM
CC(C)(C)c1[nH]cnc1/C=c1\[nH]c(=O)/c(=C/c2cccc(C(=O)c3ccc(Cl)cc3)c2)[nH]c1=O,IC50,[1],1.1 nM
COc1ccc(C(=O)c2cccc(/C=c3\[nH]c(=O)/c(=C/c4nc[nH]c4C(C)(C)C)[nH]c3=O)c2)c(OC)c1,IC50,[1],1800 nM
CC(C)(C)c1[nH]cnc1/C=c1\[nH]c(=O)/c(=C/c2cccc(C(=O)c3ccccc3Cl)c2)[nH]c1=O,IC50,[1],6 nM
COc1ccc(/C=C\c2cc(OC)c(OC)c(OC)c2)cc1O [COMBRETASTATIN A4],IC50,[2],2.2 nM
same,IC50,[3],550 nM
same,Activity,[4],Active
same,Activity,[5],Active
same,Activity,[6],inactive
same,IC50,[11],12000 nM
same,IC50,[8],5.3 nM
same,Activity,[9],inactive
same,Activity,[10],inactive
CC(C)(C)c1[nH]cnc1/C=c1\[nH]c(=O)/c(=C/c2ccc3c(c2)C(=O)c2ccccc2-3)[nH]c1=O,IC50,[11],2800 nM
COc1ccc(C(=O)c2cccc(/C=c3\[nH]c(=O)/c(=C/c4nc[nH]c4C(C)(C)C)[nH]c3=O)c2)cc1,IC50,[1],3.8 nM
CC(C)(C)c1[nH]cnc1/C=c1\[nH]c(=O)/c(=C/c2cccc(C(=O)c3cccc(F)c3)c2)[nH]c1=O,IC50,[1],0.6 nM
COc1ccc(C(=O)c2cccc(/C=c3\[nH]c(=O)/c(=C/c4nc[nH]c4C(C)(C)C)[nH]c3=O)c2)cc1OC,IC50,[1],7300 nM
